# Reference: patent publication US20110040086A1, “Novel Beta-Lactam Antibiotics, Methods for Their Production, and Their Use” (DRITTE PATENTPORTFOLIO BETEILIGUNGSGESELLSCHAFT MB, priority 2007, published 2011)
# Experiments:
# S. aureus 36881 = experiment: agar diffusion test (Test System II, multi-resistant germs); assay type: cell-based, Staphylococcus aureus; set-up: key: r = resistant (no detectable zone of inhibition)
# Procedure, shortened: (§1)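 Semi-synthetic compounds were tested by disc diffusion at three loadings, 10, 50 and 100 μg per disc. Bacteria at McFarland 0.5 were spread on Müller-Hinton agar II; after 18-20 h at 37 °C the inhibition zone diameter was taken.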
# [1] = system: S. aureus North Germany strain; experiment: as above; assay type: cell-based, Staphylococcus aureus; set-up: key: r = resistant (no detectable zone of inhibition)
# Procedure, shortened: as §1
# S. aureus 520 = experiment: as above; assay type: cell-based, Staphylococcus aureus; set-up: key: r = resistant (no detectable zone of inhibition)
# Procedure, shortened: as §1
# S. epidermidis 847 = experiment: as above; assay type: cell-based, Staphylococcus epidermidis; set-up: key: r = resistant (no detectable zone of inhibition)
# Procedure, shortened: as §1
# S. aureus ATCC 6538 = experiment: as above; assay type: cell-based, Staphylococcus aureus
# Procedure, shortened: as §1
# S. aureus 38418 = experiment: as above; assay type: cell-based, Staphylococcus aureus
# Procedure, shortened: as §1
# [2] = system: Staphylococcus aureus ATCC 6538; experiment: mouse infected with Staphylococcus aureus infection model (survival); assay type: in vivo, BALB/c mice; conditions: 2 × 0.5 mg (25 mg/kg) i.p.
# Experimental: Method for Effectiveness In Vivo with the Mouse Infected with Staphylococcus aureus Model
# On Day 0, at least 3 BALB/c mice per test substance (Table 8) or controls are pretreated with cyclophosphamide (250 mg/kg) in 250 μl PBS inta peritoneal (i.p.).
# On Day 2, the animals again received 100 mg/kg i.p.
# On Day 2, a colony of the test germ is transferred from a growing agar plate (Müller-Hinton-Agar, Beckton Dickinson) into a flask with 10 ml CASO broth (CASO-B., Soyabean peptone-Casein peptone broth, SIFIN, 30 g/l) and is cultivated overnight at 37° C. and a shaking frequency of 250 rpm.
# On Day 3, the pre-culture (Vk) is diluted 1:50 with CASO-B and further cultivated ca. 2 hours until an extinction in the medium of 0.6 at a wavelength of 550 nm is reached. Then, it is grown 1× with PBS at room temperature and set again to an extinction of 0.6.
# At least 3 animals for a test substance or controls are infected with 10 μl/g body weight grown germs of a bacteria suspension with the extinction 0.6 (ca. 10^10-10^12 CFU, Colony forming units) i.p.
# After 30 minutes, antibiotic solution is injected into the mice in a volume of 200 μl PBS with 3% DMSO i.p. 6 hours later, the second antibiotic injection is performed at the same concentration. […]
# [3] = logP value by HPLC according to Donovan et al.
# Experimental: • Operating temperature 18-24° C. • Flow 1.5 mL/min • Linear gradient (methanol/0.1% phosphoric acid pH 2) from 10% to 100% methanol in 9.4 min, equilibrium time between 2 runs 6 min
# ca. 0.5 mg of analyte is added to 0.5 ml of a standard solution (440 mg methyl phenyl sulfonate and 380 μl toluene in 150 mL methanol). 2 μl of this sample solution is injected.
# Because the distribution coefficients of the two standards running in each test are known, the distribution coefficient of the analytes can be determined from the relationships of the analyte/standard retention times.
# [4] = system: Staphylococcus aureus 315; experiment: agar diffusion test (Test System II, multi-resistant germs); assay type: cell-based; set-up: key: r = resistant (no detectable zone of inhibition)
# Procedure, shortened: as §1
# [5] = system: Enterococcus faecalis 769; experiment: as above; assay type: cell-based; set-up: key: r = resistant (no detectable zone of inhibition)
# Procedure, shortened: as §1
# S. epidermidis 125 = experiment: as above; assay type: cell-based, Staphylococcus epidermidis
# Procedure, shortened: as §1
# S. aureus 39105 = experiment: as above; assay type: cell-based, Staphylococcus aureus; set-up: key: r = resistant (no detectable zone of inhibition)
# Procedure, shortened: as §1
# S. aureus 526 = experiment: as above; assay type: cell-based, Staphylococcus aureus; set-up: key: r = resistant (no detectable zone of inhibition)
# Procedure, shortened: as §1
# S. aureus 33490 = experiment: as above; assay type: cell-based, Staphylococcus aureus; set-up: key: r = resistant (no detectable zone of inhibition)
# Procedure, shortened: as §1
# S. aureus 34289 = experiment: as above; assay type: cell-based, Staphylococcus aureus; set-up: key: r = resistant (no detectable zone of inhibition)
# Procedure, shortened: as §1
# S. epidermidis 1071 = experiment: as above; assay type: cell-based, Staphylococcus epidermidis; set-up: key: r = resistant (no detectable zone of inhibition)
# Procedure, shortened: as §1
# S. epidermidis 1068 = experiment: as above; assay type: cell-based, Staphylococcus epidermidis; set-up: key: r = resistant (no detectable zone of inhibition)
# Procedure, shortened: as §1
# S. epidermidis 563 = experiment: as above; assay type: cell-based, Staphylococcus epidermidis; set-up: key: r = resistant (no detectable zone of inhibition)
# Procedure, shortened: as §1
# [6] = system: Bacillus megaterium SBUG 1152; experiment: agar diffusion test (Test System 1, antimicrobial effect); assay type: cell-based
# Procedure, shortened: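 Paper discs loaded with 10 μg, 50 μg or 100 μg of test substance (methanol or water solution) placed on nutrient agar seeded with 10^6 cells of a 17-h B. megaterium culture. After 20 h at 37° C., zone of inhibition measured as diameter in mm.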
# B. subtilis AWD 166 = experiment: agar diffusion test (antimicrobial effect); assay type: cell-based, Bacillus subtilis
# Procedure, shortened: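 Inhibition zone diameters (mm) read after 20 h incubation at 37 °C. Discs carried 10 μg, 50 μg or 100 μg of test substance, dissolved in methanol or distilled water, on agar inoculated with B. subtilis AWD 166 for dense but separate colonies.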
# E. faecalis 945 = experiment: agar diffusion test (Test System II, multi-resistant germs); assay type: cell-based, Enterococcus faecalis; set-up: key: r = resistant (no detectable zone of inhibition)
# Procedure, shortened: as §1
# [7] = system: Escherichia coli SBUG 1135; experiment: agar diffusion test (Test System 1, antimicrobial effect); assay type: cell-based
# Procedure, shortened: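 Disc diffusion: compound at 10 μg, 50 μg, 100 μg on sensi-discs, three per plate of nutrient agar seeded with ~10^6 E. coli SBUG 1135 (overnight culture, 17 h, 37° C, diluted 1:100). After 20 h incubation at 37° C, zone diameter recorded in mm.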
smiles,measurement,setting,value
"O=C(O)C1=C(Cl)CC2C(=O)C(NC(=O)C(NC3=C(C(=O)NCCO)C(=O)C=CC3=O)c3ccccc3)C2N1 (stereo not drawn) [1m, 3-chlorine-7-{2-[2-(2-hydroxyethylcarbamoyl)-3,6-dioxocyclohexa-1,4-dienylamino]-2-phenyl-acetylamino}-8-oxo-5-azabicyclo[4.2.0]oct-3-ene-4-carboxylic acid]",Diameter of zone of inhibition,S. aureus 36881; Quantity n 0.018,r
same,Diameter of zone of inhibition,S. aureus 36881; Quantity n 0.092,16 mm
same,Diameter of zone of inhibition,S. aureus 36881; Quantity n 0.18,20 mm
same,Diameter of zone of inhibition,[1]; Quantity n 0.018,r
same,Diameter of zone of inhibition,[1]; Quantity n 0.092,r
same,Diameter of zone of inhibition,[1]; Quantity n 0.18,12 mm
same,Diameter of zone of inhibition,S. aureus 520; Quantity n [mol] 0.018,r
same,Diameter of zone of inhibition,S. aureus 520; Quantity n [mol] 0.092,r
same,Diameter of zone of inhibition,S. aureus 520; Quantity n [mol] 0.18,8 mm
same,Diameter of zone of inhibition,S. epidermidis 847; Quantity n [mol] 0.018,r
same,Diameter of zone of inhibition,S. epidermidis 847; Quantity n [mol] 0.092,14 mm
same,Diameter of zone of inhibition,S. epidermidis 847; Quantity n [mol] 0.18,18 mm
same,Diameter of zone of inhibition,S. aureus ATCC 6538; Quantity n 0.018,22 mm
same,Diameter of zone of inhibition,S. aureus ATCC 6538; Quantity n 0.092,>30 mm
same,Diameter of zone of inhibition,S. aureus ATCC 6538; Quantity n 0.18,>30 mm
same,Diameter of zone of inhibition,S. aureus 38418; Quantity n [mol] 0.018,20 mm
same,Diameter of zone of inhibition,S. aureus 38418; Quantity n [mol] 0.092,30 mm
same,Diameter of zone of inhibition,S. aureus 38418; Quantity n [mol] 0.18,>30 mm
same,Survival/tested mice n/n,[2],9/9
same,logP value,"[3]; HPLC, methanol/0.1% phosphoric acid pH 2",1.62
same,Diameter of zone of inhibition,[4]; Quantity n 0.018,r
same,Diameter of zone of inhibition,[4]; Quantity n 0.092,r
same,Diameter of zone of inhibition,[4]; Quantity n 0.18,8 mm
same,Diameter of zone of inhibition,[5]; Quantity n 0.018,r
same,Diameter of zone of inhibition,[5]; Quantity n 0.092,r
same,Diameter of zone of inhibition,[5]; Quantity n 0.18,r
same,Diameter of zone of inhibition,S. epidermidis 125; Quantity n 0.018,20 mm
same,Diameter of zone of inhibition,S. epidermidis 125; Quantity n 0.092,26 mm
same,Diameter of zone of inhibition,S. epidermidis 125; Quantity n 0.18,28 mm
"CC1=C(C(=O)O)N2C(=O)[C@@H](NC(=O)[C@H](N)c3ccc(O)cc3)[C@H]2SC1 [2a, Cefadroxil, reference compound]",Diameter of zone of inhibition,S. aureus 39105; Quantity n 0.019,16 mm
same,Diameter of zone of inhibition,S. aureus 39105; Quantity n 0.1,24 mm
same,Diameter of zone of inhibition,S. aureus 39105; Quantity n 0.19,26 mm
same,Diameter of zone of inhibition,S. aureus 36881; Quantity n 0.019,r
same,Diameter of zone of inhibition,S. aureus 36881; Quantity n 0.1,14 mm
same,Diameter of zone of inhibition,S. aureus 36881; Quantity n 0.19,18 mm
same,Diameter of zone of inhibition,S. aureus 526; Quantity n 0.019,r
same,Diameter of zone of inhibition,S. aureus 526; Quantity n 0.1,r
same,Diameter of zone of inhibition,S. aureus 526; Quantity n 0.19,r
same,Diameter of zone of inhibition,[1]; Quantity n 0.019,r
same,Diameter of zone of inhibition,[1]; Quantity n 0.1,r
same,Diameter of zone of inhibition,[1]; Quantity n 0.19,10 mm
same,Diameter of zone of inhibition,S. aureus 33490; Quantity n [μmol] 0.019,16 mm
same,Diameter of zone of inhibition,S. aureus 33490; Quantity n [μmol] 0.1,24 mm
same,Diameter of zone of inhibition,S. aureus 33490; Quantity n [μmol] 0.19,28 mm
same,Diameter of zone of inhibition,S. aureus 520; Quantity n [mol] 0.019,r
same,Diameter of zone of inhibition,S. aureus 520; Quantity n [mol] 0.1,r
same,Diameter of zone of inhibition,S. aureus 520; Quantity n [mol] 0.19,8 mm
same,Diameter of zone of inhibition,S. aureus 34289; Quantity n [mol] 0.019,r
same,Diameter of zone of inhibition,S. aureus 34289; Quantity n [mol] 0.1,r
same,Diameter of zone of inhibition,S. aureus 34289; Quantity n [mol] 0.19,r
same,Diameter of zone of inhibition,S. epidermidis 1071; Quantity n 0.019,22 mm
same,Diameter of zone of inhibition,S. epidermidis 1071; Quantity n 0.1,28 mm
same,Diameter of zone of inhibition,S. epidermidis 1071; Quantity n 0.19,30 mm
same,Diameter of zone of inhibition,S. epidermidis 847; Quantity n [mol] 0.019,12 mm
same,Diameter of zone of inhibition,S. epidermidis 847; Quantity n [mol] 0.1,26 mm
same,Diameter of zone of inhibition,S. epidermidis 847; Quantity n [mol] 0.19,30 mm
same,Diameter of zone of inhibition,S. epidermidis 1068; Quantity n 0.019,20 mm
same,Diameter of zone of inhibition,S. epidermidis 1068; Quantity n 0.1,24 mm
same,Diameter of zone of inhibition,S. epidermidis 1068; Quantity n 0.19,26 mm
same,Diameter of zone of inhibition,S. epidermidis 563; Quantity n 0.019,24 mm
same,Diameter of zone of inhibition,S. epidermidis 563; Quantity n 0.1,28 mm
same,Diameter of zone of inhibition,S. epidermidis 563; Quantity n 0.19,32 mm
same,Diameter of zone of inhibition,S. aureus ATCC 6538; Quantity n 0.019,32 mm
same,Diameter of zone of inhibition,S. aureus ATCC 6538; Quantity n 0.1,38 mm
same,Diameter of zone of inhibition,S. aureus ATCC 6538; Quantity n 0.19,40 mm
same,Diameter of zone of inhibition,S. aureus 38418; Quantity n [mol] 0.019,30 mm
same,Diameter of zone of inhibition,S. aureus 38418; Quantity n [mol] 0.1,34 mm
same,Diameter of zone of inhibition,S. aureus 38418; Quantity n [mol] 0.19,38 mm
same,Diameter of zone of inhibition,[6]; Quantity n 0.019,36^1 mm
same,Diameter of zone of inhibition,[6]; Quantity n 0.1,38 mm
same,Diameter of zone of inhibition,[6]; Quantity n 0.19,40 mm
same,Diameter of zone of inhibition,B. subtilis AWD 166; Quantity n 0.019,36 mm
same,Diameter of zone of inhibition,B. subtilis AWD 166; Quantity n 0.1,38 mm
same,Diameter of zone of inhibition,B. subtilis AWD 166; Quantity n 0.19,40 mm
same,Diameter of zone of inhibition,E. faecalis 945; Quantity n 0.019,r
same,Diameter of zone of inhibition,E. faecalis 945; Quantity n 0.1,r
same,Diameter of zone of inhibition,E. faecalis 945; Quantity n 0.19,r
same,Diameter of zone of inhibition,[7]; Quantity n 0.019,18 mm
same,Diameter of zone of inhibition,[7]; Quantity n 0.1,22 mm
same,Diameter of zone of inhibition,[7]; Quantity n 0.19,26 mm
same,chromatographic logP,"[3]; HPLC with methanol/0.1% phosphoric acid gradient, pH 2",-3.5
same,Diameter of zone of inhibition,[4]; Quantity n 0.019,r
same,Diameter of zone of inhibition,[4]; Quantity n 0.1,r
same,Diameter of zone of inhibition,[4]; Quantity n 0.19,8 mm
same,Diameter of zone of inhibition,[5]; Quantity n 0.019,r
same,Diameter of zone of inhibition,[5]; Quantity n 0.1,10 mm
same,Diameter of zone of inhibition,[5]; Quantity n 0.19,14 mm
same,Diameter of zone of inhibition,S. epidermidis 125; Quantity n 0.019,26 mm
same,Diameter of zone of inhibition,S. epidermidis 125; Quantity n 0.1,36 mm
same,Diameter of zone of inhibition,S. epidermidis 125; Quantity n 0.19,40 mm
